Test results from publication PMC7077018, “Gas chromatography-mass spectrometry analysis, phytochemical screening and antiprotozoal effects of the methanolic Viola tricolor and acetonic Laurus nobilis extracts” (BMC Complementary Medicine and Therapies, 2020).
Values after ≈ are worked out from the molar mass of the structure shown. Read-outs that look alike come from different tables or passages of the source. Each block holds one molecule with its values, some of them ahead of it.

What was measured:
Leishmania = system: Leishmania; parameters: method as in PMID 28968213; settings: cited from earlier work
B. caballi = experiment: Babesia fluorescent (SYBR Green I) in vitro growth inhibition assay; type: cell-based; settings: for IC50: B. caballi, in vitro, 4 days
Source text: (§1) For the in vitro experiments, a German strain B. divergens, Argentine strain B. bigemina, Texas strain B. bovis, were cultivated in cattle RBCs, while USDA strains of equine piroplasm parasites (T. equi and B. caballi) were maintained in horse RBCs. […] For conducting the in vivo study, female BALB/c mice, aged six-week, obtained from CLEA Japan were infected with B. microti Munich strain [1]. […] GIT medium replenished with 40% horse serum was used as a growth medium for B. caballi parasite culture. To ensure free-bacterial contamination, all medium was supplemented with amphotericin B (0.15 μg/mL) (Sigma-Aldrich, USA), streptomycin (60 U/mL) and penicillin G (60 U/mL). The Babesia fluorescent assay was carried out on the in vitro culture as previously reported elsewhere. […] On day four of culture, an aliquot (100 μL) of lysis buffer was added to 0.2 μL/mL SG1 per well; subsequently, it was covered with aluminum foil to prevent exposure to light. After a 6-h incubation at 37 °C, fluorescence readings were acquired on a spectrofluorimeter (Fluoroskan Ascent, Thermo Fisher Scientific, USA) with a 485 nm excitation wavelength and a 518 nm emission wavelength. The IC50 values of the two extracts, DMA and ATV were established from the in vitro growth inhibition by nonlinear regression curve fit on a GraphPad Prism (GraphPad Software Inc., USA). While for in vivo, the significant variations (p < 0.05) among group mean values on parasitemia and one-way ANOVA Tukey's test in GraphPad Prism version 5.0 was used to analyze hematology profiles in mice infected with B. microti.

T. equi = experiment: as above; type: cell-based; settings: for IC50: T. equi, in vitro, 4 days
Source text: as §1

B. bigemina = experiment: as above; type: cell-based; settings: for IC50: B. bigemina, in vitro, 4 days
Source text: as §1

B. divergens = experiment: as above; type: cell-based; settings: for IC50: B. divergens, in vitro, 4 days
Source text: as §1

B. bovis = experiment: as above; type: cell-based; settings: for IC50: B. bovis, in vitro, 4 days
Source text: as §1

[1] = system: human foreskin fibroblast (HFF) cells; experiment: Cytotoxicity assay on normal cells (CCK-8); type: cell-based; settings: HFF cell viability, 24 h
Experimental: (§2) Cultures of Human foreskin fibroblast (HFF; HFF-1 ATCC® SCRC-1041™), Madin–Darby bovine kidney (MDBK; ECACC) and mouse embryonic fibroblast (NIH/3 T3; ATCC® CRL-1658™) cells were retrieved from − 80 °C stock and cultured continuously at 37 °C under atmosphere 5% CO2 in our laboratory. The NIH/3 T3 and HFFs cells were preserved in Dulbecco Modified Eagle’s Medium (DMEM; Gibco, Grand Island, NY, USA), while MDBK cell line grown in Minimum Essential Medium Eagle (MEM; Gibco). All mediums were treated with 2 mM glutamine, 0.5% penicillin/streptomycin (Gibco) and 10% inactivated fetal bovine serum. Every 72 to 96 h, the medium was replaced, and once 80% confluence was reached, the cell collection was performed by sub-culture protocol. To confirm the absence of mycoplasma contamination, 4, 6-diamidino-2-phenylindole dihydrochloride (Sigma-Aldrich, USA) stain was used.
(§3) The cell viability test was conducted in a 96-well plate as described elsewhere. Briefly, an aliquot of (100 μL) cells was implanted at 5 × 10^4 cells/mL in DMEM or MEM with fetal bovine serum and incubated overnight under atmosphere 5% CO2 at 37 °C for attachment. Using two-fold dilutions, aliquots (10 μL) of herbal extracts and reference drugs were added in triplicate per well and further incubated for 24 h. The positive control wells containing cells mixed with the medium in 0.4% DMSO, whereas the negative control wells containing culture medium only. After a 24-h incubation, Cell Counting Kits-8 (CCK-8) (10 μL) was added per well and then plate incubation was conducted for an additional 3 h and a microplate reader was used to assess the absorbance at 450 nm.

[2] = system: mouse embryonic fibroblast (NIH/3 T3) cells; experiment: Cytotoxicity assay on normal cells (CCK-8); type: cell-based; settings: 24 h
Experimental: as §2, §3

[3] = system: Madin–Darby bovine kidney (MDBK) cells; experiment: Cytotoxicity assay on normal cells (CCK-8); type: cell-based; settings: MDBK cell viability, 24 h
Experimental: as §2, §3

B. microti = experiment: Chemotherapeutic effects against B. microti in infected BALB/c mice; type: in vivo
Experimental: For the in vitro experiments, a German strain B. divergens, Argentine strain B. bigemina, Texas strain B. bovis, were cultivated in cattle RBCs, while USDA strains of equine piroplasm parasites (T. equi and B. caballi) were maintained in horse RBCs. The parasite incubation occurred at 37 °C in a humidifying chamber under 90% N2, 5% O2, and 5% CO2 atmosphere using a microaerophilic stationary-phase culture. For conducting the in vivo study, female BALB/c mice, aged six-week, obtained from CLEA Japan were infected with B. microti Munich strain [1].
Twenty-five mice were placed in an environment free from pathogens with 22 °C temperature and adjusted humidity and under 12 h light and 12 h darkness and randomly distributed into five groups. The mice in groups 2 through 5 were obtained 500 μL of 1 × 10^7B. microti iRBC by intraperitoneal (i.p.) injection. Group 1 served as a negative control and was neither infected nor treated. At 1% parasitemia, drug treatment of the mice by i.p. started, continuing for 5 days. Group 2 act as a positive control group and received 95% DDW and 5% DMSO. […] The drug administration lasted for 5 days starting from the fourth day to the eighth day post-infection (p.i.), and parasitemia was checked by preparing Giemsa-stained smears every 2 days in about 2000 RBCs by microscopy until day 32 post-infection (p.i.). Furthermore, the hematological parameters, including hemoglobin (HGB), RBCs, and HCT, were determined by an automatic hematology analyzer (Celltac α MEK-6450, Nihon Kohden, Japan) every 4 days. After finishing the in vivo experiment, an anesthetic system using an inhaler containing isoflurane was used to euthanize all mice by placing them in the induction chamber, adjusting the oxygen flowmeter to 0.8 to 1.5 L/min and vaporizer to 3 to 5%. […]

Structure (SMILES): C=CCc1ccc(O)c(OC)c1 [eugenol]
- IC50 antileishmanial effect (Leishmania): 1.43 µg/mL (≈ 8.68 µM)

Structure (SMILES): O=C/C=C/c1ccccc1 [cinnamaldehyde]
- IC50 antileishmanial effect (Leishmania): 0.681 µg/mL (≈ 5.15 µM)

- IC50 (B. caballi): 0.003 ± 0.001 µg/mL
- IC50 (T. equi): 0.37 ± 0.01 µg/mL
- IC50 (B. bigemina): 0.11 ± 0.01 µg/mL
- IC50 (B. divergens): 0.35 ± 0.03 µg/mL
- IC50 (B. bovis): 0.25 ± 0.02 µg/mL
Structure (SMILES): CC(=O)NCC(=O)O.CC(=O)NCC(=O)O.N=C(N)c1ccc(N=NNc2ccc(C(=N)N)cc2)cc1 [DMA, diminazene aceturate]
- EC50 HFF [1]: ˃ 100 μg/mL
- EC50 NIH/3 T3 ([2]; NIH/3 T3 cell viability): ˃ 100 μg/mL
- EC50 MDBK [3]: ˃ 100 μg/mL
- Restriction of the parasitemia level (B. microti; 25 mg kg−1, eighth day p.i., mice): 93.2%
- Level of parasitemia (B. microti; 25 mg kg−1 intraperitoneally for 5 days, 8 days p.i., BALB/c mice): 3.9%
- Anemia development in mice (B. microti; B. microti-infected mice): prohibited anemia development

- IC50 (B. caballi; Babesia caballi, 96 h, read-out: IC50): 0.038 ± 0.01 µg/mL (≈ 0.104 µM)
- IC50 (T. equi; 96 h, read-out: IC50): 0.035 ± 0.01 µg/mL (≈ 0.0954 µM)
- IC50 (B. bigemina; 96 h, read-out: IC50): 0.26 ± 0.03 µg/mL (≈ 0.709 µM)
- IC50 (B. divergens; 96 h, read-out: IC50): 0.014 ± 0.002 µg/mL (≈ 0.0382 µM)
- IC50 (B. bovis; Bos taurus, 96 h, read-out: IC50): 0.015 ± 0.001 µg/mL (≈ 0.0409 µM)
Structure (SMILES): O=C1C(O)=C([C@H]2CC[C@H](c3ccc(Cl)cc3)CC2)C(=O)c2ccccc21 [ATV, atovaquone]
- Selective indices HFF (B. caballi; EC50 HFF / IC50 B. caballi): ˃ 2631.6
- Selective indices MDBK (B. caballi; EC50 MDBK / IC50 B. caballi): ˃ 2631.6
- Selective indices NIH/3 T3 (B. caballi; EC50 NIH/3 T3 / IC50 B. caballi): ˃ 2631.6
- Selective indices HFF (T. equi; EC50 HFF / IC50 T. equi): ˃ 2857.1
- Selective indices MDBK (T. equi; EC50 MDBK / IC50 T. equi): ˃ 2857.1
- Selective indices NIH/3 T3 (T. equi; EC50 NIH/3 T3 / IC50 T. equi): ˃ 2857.1
- Selective indices HFF (B. bigemina; EC50 HFF / IC50 B. bigemina): ˃ 384.6
- Selective indices MDBK (B. bigemina; EC50 MDBK / IC50 B. bigemina): ˃ 384.6
- Selective indices NIH/3 T3 (B. bigemina; EC50 NIH/3 T3 / IC50 B. bigemina): ˃ 384.6
- Selective indices HFF (B. divergens; EC50 HFF / IC50 B. divergens): ˃ 7142.9
- Selective indices MDBK (B. divergens; EC50 MDBK / IC50 B. divergens): ˃ 7142.9
- Selective indices NIH/3 T3 (B. divergens; EC50 NIH/3 T3 / IC50 B. divergens): ˃ 7142.9
- Selective indices HFF (B. bovis; EC50 HFF / IC50 B. bovis): ˃ 6666.7
- Selective indices MDBK (B. bovis; EC50 MDBK / IC50 B. bovis): ˃ 6666.7
- Selective indices NIH/3 T3 (B. bovis; EC50 NIH/3 T3 / IC50 B. bovis): ˃ 6666.7
- EC50 ([1]; Homo sapiens): > 100 µg/mL
- EC50 ([2]; Mus musculus, NIH3T3, NIH/3 T3 cell viability): > 100 µg/mL
- EC50 ([3]; Bos taurus): > 100 µg/mL
